Data on seven compounds can be found in patent publication US11008336B2, “Compounds useful for inhibiting RORγt” (Eli Lilly and Company, priority 2017, dated 2021).

The target in assay [1] is human RORg ligand binding domain fused to yeast GAL4 DNA binding domain (Homo sapiens (Human), UniProt P51449). Briefly: HEK293 RORg GAL4 receptor-reporter assay. The class given is cell-based. The conditions noted are these: HEK293 cells, RORg-GAL4/pGL4.31 luciferase, 18 hours; mean ± standard deviation; read-out: hIC50. Background: A reporter such as luciferase makes a cellular process visible.
human RORg ligand binding domain fused to yeast GAL4 DNA binding domain, sequence (P51449 269-508): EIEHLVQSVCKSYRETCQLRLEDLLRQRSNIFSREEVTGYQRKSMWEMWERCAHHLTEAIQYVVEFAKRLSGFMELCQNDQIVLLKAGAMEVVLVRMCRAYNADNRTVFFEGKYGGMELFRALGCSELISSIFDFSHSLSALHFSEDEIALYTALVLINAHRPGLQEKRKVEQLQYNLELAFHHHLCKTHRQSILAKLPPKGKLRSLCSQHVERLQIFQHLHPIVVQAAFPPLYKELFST

For assay [2], the system named is anti-CD3/anti-CD28/IL-23 stimulated IL-17 secretion in PBMC's. Briefly: PBMC IL-17 secretion ELISA. The class given is cell-based. The conditions noted are these: Homo sapiens, anti-CD3/anti-CD28/IL-23 stimulation, 48 hours, mean ± standard deviation, read-out: hPBMC IL-17 ELISA (EC50). On the procedure:
PBMC's are isolated from whole blood buffy coats by first combining fresh buffy coats with equal volumes of phosphate buffered saline. Thirty five mL of PBS/buffy coat solution are then gently overlaid onto 15 mL of Ficoll in 50 mL conical tubes. Following centrifugation for 30 minutes at 500×g (with slow acceleration and deceleration) the top layer of plasma is discarded and the layer of cells along the Ficoll interface is collected and pooled. Each 250 mL tube is filled to the top with room temperature RPMI-1640 media. Tubes are spun for 10 minutes at 500×G (with slow acceleration and deceleration), the media is removed by aspiration, and the wash step is repeated. Cells are resuspended in ice cold Recovery Cell Culture Freezing Medium from Life Technologies (Catalog number 12648-010) on ice. The cell concentration is adjusted to 66.7 million cells/mL. Cell are slow frozen at −1° C./minute in vials with 100 million cells and stored in liquid nitrogen.
PBMC are brought out of thaw by resuspending with 1 mL of complete media (RPMI-1640 containing 30 mM HEPES, 100 units/mL penicillin, 100 μg/mL streptomycin, 3.25 mM L-Glutamine, 0.2 μM beta-mercaptoethanol, and 10% FBS) followed by the drop wise addition of 2 mL, 4 mL, 8 mL, and 16 mL of complete media with gentle swirling. Cells are spun down for 5 minutes and the cell pellet is resuspended in complete media. Clumps of cells are broken up by running the cell solution through a 23 gauge syringe needle and a […] cell strainer. One hundred thousand cells per well are added to 384 well polystyrene tissue culture treated flat bottomed plates in a total of 30 μL. Stimulation cocktail containing anti-human CD3 antibody, anti-human CD28 antibody, IL-23 and compounds prepared in complete media are added to the cells simultaneously in a total volume of 30 μL. The final concentration of added stimulants is 160 ng/mL, 500 ng/mL, and 5 ng/mL for anti-CD3 antibody, anti-CD28 antibody, and IL-23 respectively and 0.3% for DMSO. Plates are sealed with AERASEAL® sealing film and incubated for 48 hours at 37° C., 95% humidity, and 5% CO2.
Following the incubation period, the plates are spun at 200×g for five minutes. Supernatants are diluted 1:1 with equal volume 1% BSA/PBS and tested for IL-17 with a human IL-17 ELISA kit from R&D system (catalog #D317E) according to the protocol provided with the kit with one exception—the colorimetric substrate OPD (o-phenylenediamine dihydrochloride, Sigma Cat #P6912) is used instead of the substrate supplied in the kit. Absorbance at 492 nm is measured with the Envision multi-label plate reader. A492 values are converted to concentration of IL-17 based on the IL-17 standard curve as shown below: pg/mL IL-17=EC50*[[(Top-Bottom)/(A492-Bottom)]-1](1/-Hill). IC50's for inhibition of IL-17 secretion is calculated based on converted values using a standard 4-parameter fit with maximum inhibition determined from the average values of wells with no added stimulants nor compounds and minimum inhibition from the average values of wells with stimulants alone and no added compound.
In general terms: An ELISA detects its analyte on a solid surface through an enzyme-linked reagent.

Assay [3] has as its system PBMC. Briefly: cells. The class given is cell-based. The conditions noted are these: Homo sapiens, 48 h, read-out: Cell TiterGlo Viability (EC50, μM). As to the method:
PBMC's are isolated from whole blood buffy coats by first combining fresh buffy coats with equal volumes of phosphate buffered saline. Thirty five mL of PBS/buffy coat solution are then gently overlaid onto 15 mL of Ficoll in 50 mL conical tubes. Following centrifugation for 30 minutes at 500×g (with slow acceleration and deceleration) the top layer of plasma is discarded and the layer of cells along the Ficoll interface is collected and pooled. […] Tubes are spun for 10 minutes at 500×G (with slow acceleration and deceleration), the media is removed by aspiration, and the wash step is repeated.
Cells are spun down for 5 minutes and the cell pellet is resuspended in complete media. Clumps of cells are broken up by running the cell solution through a 23 gauge syringe needle and a 40 μM cell strainer.
Equal volumes of Cell TITERGLO® cell viability testing reagent (Promega Cat #G7573) are added to the cells remaining in the plates, and following a fifteen minute incubation with gentle shaking at room temperature luminescence is measured with the Envision multi-label plate reader. Percent cell death is calculated by setting 100% activity (cell death) to zero luminescence units and minimum activity (max number of viable cells) as the average luminescence units of wells containing stimulants alone and no added compound. IC50's are calculated using a standard four parameter fit.
(In general: In ATP-based viability assays light output follows the ATP content of the culture.)

Assay [4] concerns the target human RAR-related orphan receptor alpha (hRORα) (Homo sapiens (Human), UniProt P35398). As to the kind of experiment: RORα receptor-ligand competition binding assay. The conditions noted are these: His-tagged hRORα, [3H]-25-hydroxycholesterol; mean ± standard deviation; read-out: RORa Ki. On the procedure: (§1) His-tagged human RAR-related orphan receptor alpha (hRORα), human RAR-related orphan receptor beta (hRORβ), and human RAR-related orphan receptor gamma (hRORγ) are used for receptor-ligand competition binding assays to determine Ki values. Typical procedures are provided below.
(§2) The final wells contain 20 μg/mL aprotinin and 20 μg/mL leupeptin and 10 μM Pefabloc. Typically, receptor binding assays include radio-labeled ligands, such as 7 nM [^3H]-25-hydroxycholesterol for alpha binding, 20 nM [^3H]-3-[[4-[[3-(2,6-dichlorophenyl)-5-isopropyl-isoxazol-4-yl]methoxy]-N,2-dimethyl-anilino]methyl]benzoic acid for beta binding, and 6 nM [3H]-25-hydroxycholesterol for gamma binding, and 0.5 μg RORα receptor, 0.03 μg RORβ receptor, or 0.13 μg RORγ receptor per well. Assays are typically run in 96-well format. […] Plates are mixed for 30 minutes on an orbital shaker at room temperature. After an incubation of 4 hours, plates are read in a Wallac MICROBETA® counter.
(§3) The data are used to calculate an estimated IC50 using a four parameter logistic fit. The Kd for [^3H]-25-hydroxycholesterol for RORa and RORg, and [^3H]-3-[[4-[[3-(2,6-dichlorophenyl)-5-isopropyl-isoxazol-4-yl]methoxy]-N,2-dimethyl-anilino]methyl]benzoic acid for RORb binding, is determined by saturation binding. The IC50 values for compounds are converted to Ki using the Cheng-Prushoff equation.

The target in assay [5] is human RAR-related orphan receptor beta (hRORβ) (Homo sapiens (Human), UniProt Q92753). Briefly: RORβ receptor-ligand competition binding assay. Particulars: His-tagged hRORβ; mean ± standard deviation; read-out: RORb Ki. As to the method:
as §1, §2, §3

Assay [6] deals with GPI induced arthritis in DBA/1 mice. Briefly: Glucose-6-phosphate isomerase (GPI) induced arthritis model. The class given is in vivo, mouse. Particulars: 100 mg/Kg orally once daily. On the procedure: The GPI induced arthritis model is adapted from K. Iwanami et al Arthritis Rheumatism 58, 754-763, 2008 and D. Schubert et al. J Immunology 172, 4503-4509, 2004. Mice (8-9 week old male DBA/1 mice) (Harlan) are randomly assigned into treatment groups based on body weights collected on the day of immunization (day 0). On the day of immunization (day 0), a 1:1 (v:v) mixture of recombinant human GPI (diluted to 4 mg/mL in PBS, Gibco) and complete Freund's adjuvant (CFA, Sigma) is mixed on a high speed homogenizer (Omni) for 40 minutes in a cold room. A final concentration of 2 mg/mL GPI is achieved in the emulsion. Mice are injected at the base of the tail (2 sites of injection, subcutaneously, 100 μL each site) with the GPI emulsion. Test compounds are dosed orally starting on the same day as immunization (day 0). Starting on day 0, each paw is scored for severity of joint swelling based on a 0 to 3 scoring system (See K. Iwanami et al Arthritis Rheumatism 58, 754-763, 2008. The clinical score represents the total score of all 4 paws (maximum score=12). Clinical scores are assessed on days 0, 2, 4, 7, 8, 9, 10, 11, 12, 14, 16, 18, and 21.
The AUC is calculated by a trapezoid method for clinical score over time from the day of immunization (day 0) to day 21. Test p-values were derived from Student's t-test.

Assay [7] concerns the target human RAR-related orphan receptor gamma (hRORγ) (Homo sapiens (Human), UniProt P51449). As to the kind of experiment: RORγ receptor-ligand competition binding assay. The conditions noted are these: His-tagged hRORγ, [3H]-25-hydroxycholesterol; mean ± standard deviation; read-out: RORg Ki. On the procedure: as §1, §2, §3

human RAR-related orphan receptor beta (hRORβ), sequence (Q92753 whole entry): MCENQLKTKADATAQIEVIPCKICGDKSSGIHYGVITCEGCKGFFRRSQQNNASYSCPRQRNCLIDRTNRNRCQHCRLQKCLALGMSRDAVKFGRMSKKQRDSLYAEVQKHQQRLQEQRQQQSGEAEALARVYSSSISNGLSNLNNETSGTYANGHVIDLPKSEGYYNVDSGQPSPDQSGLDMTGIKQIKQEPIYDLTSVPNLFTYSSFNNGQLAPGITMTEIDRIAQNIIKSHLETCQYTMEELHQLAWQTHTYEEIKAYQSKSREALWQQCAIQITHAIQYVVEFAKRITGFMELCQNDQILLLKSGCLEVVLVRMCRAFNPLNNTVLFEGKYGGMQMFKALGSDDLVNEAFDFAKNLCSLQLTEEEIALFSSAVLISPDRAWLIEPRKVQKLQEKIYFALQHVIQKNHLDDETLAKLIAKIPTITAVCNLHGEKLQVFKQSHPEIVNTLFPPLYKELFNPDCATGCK
human RAR-related orphan receptor gamma (hRORγ), sequence (P51449 whole entry): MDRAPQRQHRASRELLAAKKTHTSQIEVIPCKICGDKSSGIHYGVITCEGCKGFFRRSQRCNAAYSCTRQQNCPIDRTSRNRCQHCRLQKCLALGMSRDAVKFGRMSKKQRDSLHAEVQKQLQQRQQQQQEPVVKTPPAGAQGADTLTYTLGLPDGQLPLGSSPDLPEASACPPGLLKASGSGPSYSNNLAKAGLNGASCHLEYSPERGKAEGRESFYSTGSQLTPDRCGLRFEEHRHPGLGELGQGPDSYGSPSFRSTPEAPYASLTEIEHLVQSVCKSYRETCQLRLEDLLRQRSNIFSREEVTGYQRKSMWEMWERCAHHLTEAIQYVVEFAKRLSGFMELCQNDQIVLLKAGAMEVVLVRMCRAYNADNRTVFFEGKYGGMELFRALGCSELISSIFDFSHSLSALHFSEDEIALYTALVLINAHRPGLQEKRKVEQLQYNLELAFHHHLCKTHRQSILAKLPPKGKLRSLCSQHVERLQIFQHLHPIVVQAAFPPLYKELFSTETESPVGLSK
human RAR-related orphan receptor alpha (hRORα), sequence (P35398 whole entry): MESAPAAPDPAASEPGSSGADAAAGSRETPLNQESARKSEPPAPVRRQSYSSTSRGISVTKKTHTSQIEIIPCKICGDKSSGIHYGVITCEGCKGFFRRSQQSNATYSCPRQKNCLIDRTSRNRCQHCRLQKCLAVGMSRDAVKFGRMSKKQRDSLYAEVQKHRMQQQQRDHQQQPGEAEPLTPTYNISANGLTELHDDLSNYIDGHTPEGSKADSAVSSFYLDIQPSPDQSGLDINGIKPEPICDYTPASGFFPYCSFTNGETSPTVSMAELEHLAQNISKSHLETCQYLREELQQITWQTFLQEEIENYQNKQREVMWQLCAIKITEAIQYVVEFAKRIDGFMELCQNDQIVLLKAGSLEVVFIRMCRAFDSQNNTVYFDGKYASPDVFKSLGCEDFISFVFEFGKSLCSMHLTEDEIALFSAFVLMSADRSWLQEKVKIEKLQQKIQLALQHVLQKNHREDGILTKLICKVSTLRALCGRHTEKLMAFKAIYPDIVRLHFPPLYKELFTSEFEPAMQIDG

`CCS(=O)(=O)c1ccc(CNC(=O)c2cc3c(s2)C2(CCN(C(C)c4cnc(C(F)(F)F)nc4C)CC2)O[C@@H](C)C3)cc1` (single isomer, unassigned; isomer 1) [Example 66, (5′S)-N-[4-(Ethylsulfonyl)benzyl]-5′-methyl-1-{1-[4-methyl-2-(trifluoromethyl)pyrim-idin-5-yl]ethyl}-4′,5′-dihydrospiro[piperidine-4,7′-thieno[2,3-c]pyran]-2′-carboxamide isomer 1]: the IC50 in assay [1] is 0.0314 ± 0.0112 µM. For the same compound, the figures for the EC50 in assay [2] and in assay [3] were 0.0133 ± 0.0047 µM and over 1 µM, respectively.

Take `CCS(=O)(=O)c1ccc(CNC(=O)c2cc3c(s2)C2(CCN(C(C)c4ccc(C(F)(F)F)nc4)CC2)OC(C)C3)nc1` (single isomer, unassigned; isomer 2) [Example 46, N-{[5-(Ethylsulfonyl)pyridin-2-yl]methyl}-5′-methyl-1-{1-[6-(trifluoromethyl)pyridin-3-yl]ethyl}-4′,5′-dihydrospiro[piperidine-4,7′-thieno[2,3-c]pyran]-2′-carboxamide isomer 2]: in assay [4], the Ki was over 20.4 µM. For the same compound, the EC50 in assay [2] is 0.0245 ± 0.0119 µM; in assay [3] it was over 1 µM.

As to `CCS(=O)(=O)c1ccc(CNC(=O)c2cc3c(s2)C2(CCN(C(C)c4cnc(C(F)(F)F)s4)CC2)O[C@@H](C)C3)nc1` (single isomer, unassigned; isomer 2) [Example 55, (5′S)-N-{[5-(Ethylsulfonyl)pyridin-2-yl]methyl}-5′-methyl-1-{1-[2-(trifluoromethyl)-1,3-thiazol-5-yl]ethyl}-4′,5′-dihydrospiro[piperidine-4,7′-thieno[2,3-c]pyran]-2′-carboxamide isomer 2], the Ki in assay [5] was over 12.5 µM. Besides, the concentration for a half-maximal effect (EC50) was 0.0126 ± 0.0081 µM in assay [2] and over 1 µM in assay [3]. Also, the “severity of paw swelling and mean clinical scores compared to the vehicle group” value in assay [6] was “reduces severity of paw swelling and maintains lower mean clinical scores”. The “reduction in clinical score AUC” value in assay [6] (compared to the vehicle group) came out at 94%. Besides, the “Clinical Score AUC (mean ± SEM)” value in assay [6] (day 0 to day 21, male DBA/1 mice) amounted to 7.50 ± 2.08.

In the case of `CCS(=O)(=O)c1ccc(CNC(=O)c2cc3c(s2)C2(CCN(C(C)c4cnc(C(F)(F)F)nc4C)CC2)O[C@@H](C)C3)nc1` (single isomer, unassigned; isomer 2) [Example 69, (5′S)-N-{[5-(Ethylsulfonyl)pyridin-2-yl]methyl}-5′-methyl-1-{1-[4-methyl-2-(trifluoromethyl)pyrim-idin-5-yl]ethyl}-4′,5′-dihydrospiro[piperidine-4,7′-thieno[2,3-c]pyran]-2′-carboxamide isomer 2], the IC50 in assay [1] was 0.0154 ± 0.0134 µM. In addition, the 50% effective concentration (EC50) is 0.03 ± 0.0185 µM in assay [2] and over 1 µM in assay [3].

Regarding `CCS(=O)(=O)c1ccc(CNC(=O)c2cc3c(s2)C2(CCN([C@H](C)c4cnc(C(F)(F)F)nc4)CC2)O[C@@H](C)C3)cc1` [Example 16, (5′S)—N-[4-(Ethylsulfonyl)benzyl]-5′-methyl-1-{(1R)-1-[2-(trifluoromethyl)pyrimidin-5-yl]ethyl}-4′,5′-dihydrospiro[piperidine-4,7′-thieno[2,3-c]pyran]-2′-carboxamide], the Ki in assay [5] was over 12.5 µM. Besides, the EC50 in assay [3] is over 1 µM.

Turning to `CCS(=O)(=O)c1ccc(CNC(=O)c2cc3c(s2)C2(CCN(Cc4ccc(-c5ncon5)cc4F)CC2)O[C@@H](C)C3)nc1` [Example 25, (5′S)-N-{[5-(Ethylsulfonyl)pyridin-2-yl]methyl}-1-[2-fluoro-4-(1,2,4-oxadiazol-3-yl)benzyl]-5′-methyl-4′,5′-dihydrospiro[piperidine-4,7′-thieno[2,3-c]pyran]-2′-carboxamide], the Ki in assay [7] was 0.00604 ± 0.00119 µM. For the same compound, the IC50 in assay [1] worked out at 0.0162 ± 0.0097 µM. Further, the results for the EC50 in assay [2] and in assay [3] were 0.0308 ± 0.0257 µM and over 1 µM, respectively.

On to `CCS(=O)(=O)c1ccc(CNC(=O)c2cc3c(s2)C2(CCN([C@@H](C)c4ccc(C#N)cc4)CC2)OCC3)cc1` [Example 64, 1-[(1S)-1-(4-Cyanophenyl)ethyl]-N-[4-(ethylsulfonyl)benzyl]-4′,5′-dihydrospiro[piperidine-4,7′-thieno[2,3-c]pyran]-2′-carboxamide], for which, in assay [5], the Ki is over 22.7 µM. Moreover, in assay [3], the 50% effective concentration (EC50) was over 3 µM.

As a reminder, the EC50 is the concentration at which the effect is half-maximal. By Ki is commonly meant the equilibrium dissociation constant of an inhibitor or competing ligand from its target.
